Measured values taken from patent US9464076B2, “Benzothiophene derivative” (Daiichi Sankyo Company, Limited, priority 2013, dated 2016).
Where a name gives a salt, the structure may show the parent alone. One block for each compound: values may come before it.

Columns and labels:
[1] = target: PDE10A (H-PDE10A2, Human Phosphodiesterase 10A2) (Homo sapiens (Human), UniProt Q9Y233); experiment: Measurement of PDE10A inhibitory activity-1 (3H-cAMP, recombinant enzyme); format: biochemical; settings: H-PDE10A2, 64 nM cAMP, 25° C., 2 hours
Procedure: To a solution containing 20 mM Tris-HCl (pH 7.5), 1 mM MgCl2, 100 μM EDTA, 330 μg/ml bovine serum albumin, 50 kU/ml 5′-nucleotidase, 0.1 μCi ^3H-cAMP (64 nM cAMP), and PDE10A (H-PDE10A2, Human Phosphodiesterase 10A2, Scottish Biomedical), a test compound was added, and the mixture was reacted at 25° C. for 2 hours. To the reaction solution, QAE-Sephadex (17-0190-01, GE Healthcare Japan Corp.) suspended in 10 mM HEPES-Na (pH 7.0) (hereinafter, also referred to as a “QAE-Sephadex suspension”) was added, and the mixture was shaken for 1 minute and left standing for 5 minutes to obtain a supernatant. To the supernatant, a QAE-Sephadex suspension was further added, and the mixture was shaken for 1 minute and left standing for 5 minutes. Then, the obtained supernatant was transferred to LumaPlate (PerkinElmer, Inc.) and assayed using a radiation counter (TopCount NXT, PerkinElmer, Inc.).
The value of the sample reacted without the addition of both a test compound and PDE10A was defined as 0%, and the value of the sample reacted in the presence of PDE10A without the addition of a test compound was defined as 100%.

PDE10A = PDE10A (Homo sapiens (Human), UniProt Q9Y233); experiment: Measurement of PDE10A inhibitory activity-2 (PDE10A fraction prepared from MOLT-4 cells); format: biochemical; settings: PDE10A fraction from MOLT-4 cells (peak around 250 mM NaCl)
Method in brief: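 Enzyme source was a PDE10A-containing fraction from MOLT-4 cell soluble extract, resolved by HiTrap Q anion exchange with a 0–0.8 M NaCl gradient and selected by cAMP-hydrolysing activity. IC50 determined with this fraction by the same procedure as the preceding PDE10A assay.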

Male C57BL/6 Cr mice [2] = experiment: Test on suppression of phencyclidine-induced hyperlocomotion in mice; format: in vivo, mouse; settings: locomotor activity, test compound 10 mg/kg oral, phencyclidine 5 mg/kg s.c. approx. 1 hour later, measured for 1 hour; for inhibition in vivo at 10 mg/kg: Mus musculus, po, 1 h
Procedure: Male C57BL/6 Cr mice (Japan SLC, Inc.) (8 weeks old) were used in the experiment. A test compound was suspended at 1 mg/mL in a 0.5% hydroxypropylcellulose solution to prepare a suspension for administration. The suspension of the test compound or a solvent (0.5% hydroxypropylcellulose solution) was orally administered at a dose of 10 mL/kg to each mouse. After the administration, the mouse was immediately placed in a locomotor activity measurement apparatus (Muromachi Kikai Co., Ltd., locomotor activity measurement system SUPERMEX). Approximately 1 hour later, phencyclidine (5 mg/10 mL/kg) or a solvent (10 mL/kg saline) was subcutaneously administered to the mouse. The locomotor activity was measured from immediately after the subcutaneous administration to 1 hour later.
Percent inhibition exceeding 100 means that when the activity of the phencyclidine administration control group was defined as 100, the activity of the group given a test compound was lower than that of the solvent administration control group.

Male C57BL/6 Cr mice [3] = experiment: as above; format: in vivo; settings: Mus musculus, oral, calculated by the linear regression method

Sequence of PDE10A (Q9Y233 whole entry): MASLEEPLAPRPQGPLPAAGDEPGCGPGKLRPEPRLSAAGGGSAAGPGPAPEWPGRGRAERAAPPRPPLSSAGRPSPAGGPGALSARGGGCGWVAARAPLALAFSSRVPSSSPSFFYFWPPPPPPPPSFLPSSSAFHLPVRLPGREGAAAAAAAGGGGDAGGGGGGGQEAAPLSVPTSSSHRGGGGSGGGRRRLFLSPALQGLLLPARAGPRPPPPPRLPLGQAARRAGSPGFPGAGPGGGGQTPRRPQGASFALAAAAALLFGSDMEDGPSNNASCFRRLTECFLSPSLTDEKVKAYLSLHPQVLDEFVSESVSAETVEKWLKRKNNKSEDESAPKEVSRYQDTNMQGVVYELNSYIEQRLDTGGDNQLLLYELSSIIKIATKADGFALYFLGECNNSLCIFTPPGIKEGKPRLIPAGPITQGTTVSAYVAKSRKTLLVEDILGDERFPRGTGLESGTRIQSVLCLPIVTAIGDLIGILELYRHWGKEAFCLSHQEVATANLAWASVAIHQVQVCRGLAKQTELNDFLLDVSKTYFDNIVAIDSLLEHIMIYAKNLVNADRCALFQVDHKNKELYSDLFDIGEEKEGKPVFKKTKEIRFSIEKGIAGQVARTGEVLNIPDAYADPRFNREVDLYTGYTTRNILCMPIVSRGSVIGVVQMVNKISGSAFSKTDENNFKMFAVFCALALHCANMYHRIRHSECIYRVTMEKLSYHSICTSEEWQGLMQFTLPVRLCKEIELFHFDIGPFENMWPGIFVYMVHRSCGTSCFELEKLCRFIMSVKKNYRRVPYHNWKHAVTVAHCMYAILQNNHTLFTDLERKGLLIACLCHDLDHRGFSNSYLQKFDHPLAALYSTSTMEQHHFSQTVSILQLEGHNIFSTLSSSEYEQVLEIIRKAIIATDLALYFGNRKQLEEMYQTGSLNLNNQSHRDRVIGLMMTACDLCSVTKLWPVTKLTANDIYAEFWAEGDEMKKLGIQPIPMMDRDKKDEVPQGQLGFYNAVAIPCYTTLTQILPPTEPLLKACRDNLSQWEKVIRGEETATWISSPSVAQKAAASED
Sequence of PDE10A (H-PDE10A2, Human Phosphodiesterase 10A2) (Q9Y233 267-1055): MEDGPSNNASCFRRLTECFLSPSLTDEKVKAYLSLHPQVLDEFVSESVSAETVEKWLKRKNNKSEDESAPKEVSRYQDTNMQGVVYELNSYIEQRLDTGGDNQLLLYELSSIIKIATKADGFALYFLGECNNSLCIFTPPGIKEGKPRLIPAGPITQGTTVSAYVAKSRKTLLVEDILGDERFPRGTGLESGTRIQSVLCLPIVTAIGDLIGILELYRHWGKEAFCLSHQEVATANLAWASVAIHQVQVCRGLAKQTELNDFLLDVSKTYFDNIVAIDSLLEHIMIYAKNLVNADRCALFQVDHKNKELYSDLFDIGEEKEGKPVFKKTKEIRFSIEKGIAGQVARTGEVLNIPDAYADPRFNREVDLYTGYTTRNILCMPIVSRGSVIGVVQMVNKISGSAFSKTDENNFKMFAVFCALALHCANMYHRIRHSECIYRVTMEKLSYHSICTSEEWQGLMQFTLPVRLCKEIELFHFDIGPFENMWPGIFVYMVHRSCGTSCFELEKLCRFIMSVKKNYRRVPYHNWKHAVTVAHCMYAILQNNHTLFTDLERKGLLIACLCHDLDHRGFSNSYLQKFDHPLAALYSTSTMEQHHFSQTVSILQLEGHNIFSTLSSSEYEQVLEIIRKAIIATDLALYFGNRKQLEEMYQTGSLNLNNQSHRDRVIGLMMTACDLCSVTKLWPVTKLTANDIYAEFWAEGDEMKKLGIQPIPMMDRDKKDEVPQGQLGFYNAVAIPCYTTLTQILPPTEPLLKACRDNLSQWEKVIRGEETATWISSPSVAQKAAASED

Structure (SMILES): COCc1ccc(C(C)=O)c2sc(C(=O)Nc3ccc4c(C(=O)N5CC(OC)C5)cccc4n3)c(C)c12 [Example 105, 7-Acetyl-N-(5-((3-methoxyazetidin-1-yl)carbonyl)quinolin-2-yl)-4-(methoxymethyl)-3-methylbenzo[b]thiophene-2-carboxamide methanesulfonate]
- IC50 ([1]; methanesulfonate): 2.1 nM

Structure (SMILES): CC(=O)c1ccc(C(C)=O)c2c(C)c(C(=O)Nc3cc(C(C)(C)O)c4ccccc4n3)sc12 [Example 6, 4,7-Diacetyl-N-(4-(2-hydroxypropan-2-yl)quinolin-2-yl)-3-methylbenzo[b]thiophene-2-carboxamide methanesulfonate]
- IC50 ([1]; methanesulfonate): 5.1 nM

Structure (SMILES): COCc1cccc2nc(NC(=O)c3sc4c(C(C)=O)ccc(COC)c4c3C)ccc12 [Example 69, 7-Acetyl-4-(methoxymethyl)-N-(5-(methoxymethyl)quinolin-2-yl)-3-methylbenzo[b]thiophene-2-carboxamide methanesulfonate]
- IC50 (PDE10A; methanesulfonate): 0.38 nM
- % inhibition (Male C57BL/6 Cr mice [2]): 81%
- ED50 (Male C57BL/6 Cr mice [3]): 3 mg/kg

Structure (SMILES): COCc1ccc(C(C)=O)c2sc(C(=O)Nc3ccc4c(CN5CCOCC5)cccc4n3)c(C)c12.Cl [Example 61, 7-Acetyl-4-(methoxymethyl)-3-methyl-N-(5-(morpholinomethyl)quinolin-2-yl)benzo[b]thiophene-2-carboxamide hydrochloride]
- inhibition in vivo at 10 mg/kg (Male C57BL/6 Cr mice [2]): 122%
- ED50 (Male C57BL/6 Cr mice [3]): 5.7 mg/kg

Structure (SMILES): CC(=O)c1ccc(C(C)=O)c2c(C)c(C(=O)Nc3cc(C(C)(C)O)c4ccccc4n3)sc12 [Example 5, 4,7-Diacetyl-N-(4-(2-hydroxypropan-2-yl)quinolin-2-yl)-3-methylbenzo[b]thiophene-2-carboxamide semisulfate]
- IC50 [1]: 11 nM

Structure (SMILES): COCc1ccc(C(C)=O)c2sc(C(=O)Nc3ccc4c(CS(C)(=O)=O)cccc4n3)c(C)c12 [Example 110, 7-Acetyl-4-(methoxymethyl)-3-methyl-N-(5-((methylsulfonyl)methyl)quinolin-2-yl)benzo[b]thiophene-2-carboxamide hydrochloride]
- IC50 ([1]; hydrochloride): 1.4 nM
- IC50 (PDE10A): 0.23 nM
- inhibition in vivo at 10 mg/kg (Male C57BL/6 Cr mice [2]): 76%

Structure (SMILES): COCc1ccc(C(C)=O)c2sc(C(=O)Nc3cc(CN4CC[C@@H](O)C4)c4ccccc4n3)c(C)c12 [Example 40, (R)-7-Acetyl-N-(4-((3-hydroxypyrrolidin-1-yl)methyl)quinolin-2-yl)-4-(methoxymethyl)-3-methylbenzo[b]thiophene-2-carboxamide hydrochloride]
- IC50 ([1]; hydrochloride): 0.65 nM

Structure (SMILES): COCc1ccc(C(C)=O)c2sc(C(=O)Nc3ccc4c(CO)cccc4n3)c(C)c12.Cc1ccc(S(=O)(=O)O)cc1 [Example 81, 7-Acetyl-N-(5-(hydroxymethyl)quinolin-2-yl)-4-(methoxymethyl)-3-methylbenzo[b]thiophene-2-carboxamide p-toluenesulfonate]
- % inhibition (Male C57BL/6 Cr mice [2]): 122%
- ED50 (Male C57BL/6 Cr mice [3]): 3.3 mg/kg

Structure (SMILES): COCc1ccc(C(C)=O)c2sc(C(=O)Nc3ccc4c(CS(C)(=O)=O)cccc4n3)c(C)c12 [Example 109, 7-Acetyl-4-(methoxymethyl)-3-methyl-N-(5-((methylsulfonyl)methyl)quinolin-2-yl)benzo[b]thiophene-2-carboxamide]
- IC50 [1]: 0.61 nM

More lines, main results first:

- IC50 [1]: 0.7 nM
- IC50 (PDE10A): 0.3 nM
Structure (SMILES): COCc1ccc(C(C)=O)c2sc(C(=O)Nc3ccc4c(C(=O)N5CC(OC)C5)cccc4n3)c(C)c12 [Example 102, 7-Acetyl-N-(5-((3-methoxyazetidin-1-yl)carbonyl)quinolin-2-yl)-4-(methoxymethyl)-3-methylbenzo[b]thiophene-2-carboxamide]
- % inhibition (Male C57BL/6 Cr mice [2]): 120%

- IC50 ([1]; hydrobromide): 2 nM
Structure (SMILES): COCc1ccc(C(C)=O)c2sc(C(=O)Nc3cc(C(C)(C)O)c4ccccc4n3)c(C)c12 [Example 28, 7-Acetyl-N-(4-(2-hydroxypropan-2-yl)quinolin-2-yl)-4-(methoxymethyl)-3-methylbenzo[b]thiophene-2-carboxamide hydrobromide]

- IC50 ([1]; hydrobromide): 0.73 nM
Structure (SMILES): COCc1ccc(C(C)=O)c2sc(C(=O)Nc3ccc4c(C(=O)N5CC(OC)C5)cccc4n3)c(C)c12 [Example 107, 7-Acetyl-N-(5-((3-methoxyazetidin-1-yl)carbonyl)quinolin-2-yl)-4-(methoxymethyl)-3-methylbenzo[b]thiophene-2-carboxamide hydrobromide]

- IC50 ([1]; hydrochloride): 5.9 nM
Structure (SMILES): CC(=O)c1ccc(C(C)=O)c2c(C)c(C(=O)Nc3cc(C(C)(C)O)c4ccccc4n3)sc12 [Example 3, 4,7-Diacetyl-N-(4-(2-hydroxypropan-2-yl)quinolin-2-yl)-3-methylbenzo[b]thiophene-2-carboxamide hydrochloride]

- IC50 ([1]; benzenesulfonate): 2.2 nM
Structure (SMILES): COCc1ccc(C(C)=O)c2sc(C(=O)Nc3ccc4c(C(=O)N5CC(OC)C5)cccc4n3)c(C)c12 [Example 104, 7-Acetyl-N-(5-((3-methoxyazetidin-1-yl)carbonyl)quinolin-2-yl)-4-(methoxymethyl)-3-methylbenzo[b]thiophene-2-carboxamide benzenesulfonate]

- IC50 ([1]; hydrochloride): 1.6 nM
Structure (SMILES): COCc1ccc(C(C)=O)c2sc(C(=O)Nc3cc(C(C)(C)O)c4ccccc4n3)c(C)c12 [Example 27, 7-Acetyl-N-(4-(2-hydroxypropan-2-yl)quinolin-2-yl)-4-(methoxymethyl)-3-methylbenzo[b]thiophene-2-carboxamide hydrochloride]

- IC50 ([1]; methanesulfonate): 1.1 nM
Structure (SMILES): COCc1ccc(C(C)=O)c2sc(C(=O)Nc3ccc4c(CS(C)(=O)=O)cccc4n3)c(C)c12 [Example 111, 7-Acetyl-4-(methoxymethyl)-3-methyl-N-(5-((methylsulfonyl)methyl)quinolin-2-yl)benzo[b]thiophene-2-carboxamide methanesulfonate]

- IC50 ([1]; hydrobromide): 0.84 nM
Structure (SMILES): Br.COCc1ccc(C(C)=O)c2sc(C(=O)Nc3ccc4c(CS(C)(=O)=O)cccc4n3)c(C)c12 [Example 112, 7-Acetyl-4-(methoxymethyl)-3-methyl-N-(5-((methylsulfonyl)methyl)quinolin-2-yl)benzo[b]thiophene-2-carboxamide hydrobromide]
- % inhibition (Male C57BL/6 Cr mice [2]): 57%

- IC50 (PDE10A): 0.76 nM
Structure (SMILES): COCc1ccc(C(C)=O)c2sc(C(=O)Nc3ccc4c(CN5CC[C@@H](O)C5)cccc4n3)c(C)c12 [Example 64, (R)-7-Acetyl-N-(5-((3-hydroxypyrrolidin-1-yl)methyl)quinolin-2-yl)-4-(methoxymethyl)-3-methylbenzo[b]thiophene-2-carboxamide dihydrochloride]
- inhibition in vivo at 10 mg/kg (Male C57BL/6 Cr mice [2]): 109%
- ED50 (Male C57BL/6 Cr mice [3]): 7.2 mg/kg

- IC50 ([1]; p-toluenesulfonate): 1.3 nM
Structure (SMILES): COCc1ccc(C(C)=O)c2sc(C(=O)Nc3cc(CN4CC[C@@H](O)C4)c4ccccc4n3)c(C)c12 [Example 41, (R)-7-Acetyl-N-(4-((3-hydroxypyrrolidin-1-yl)methyl)quinolin-2-yl)-4-(methoxymethyl)-3-methylbenzo[b]thiophene-2-carboxamide p-toluenesulfonate]

- IC50 ([1]; hydrobromide): 5.8 nM
Structure (SMILES): CC(=O)c1ccc(C(C)=O)c2c(C)c(C(=O)Nc3cc(C(C)(C)O)c4ccccc4n3)sc12 [Example 4, 4,7-Diacetyl-N-(4-(2-hydroxypropan-2-yl)quinolin-2-yl)-3-methylbenzo[b]thiophene-2-carboxamide hydrobromide]

- IC50 ([1]; hydrochloride): 0.31 nM
Structure (SMILES): COCc1ccc(C(C)=O)c2sc(C(=O)Nc3ccc4c(C(=O)N5CC(OC)C5)cccc4n3)c(C)c12 [Example 103, 7-Acetyl-N-(5-((3-methoxyazetidin-1-yl)carbonyl)quinolin-2-yl)-4-(methoxymethyl)-3-methylbenzo[b]thiophene-2-carboxamide hydrochloride]

- IC50 [1]: 1.8 nM
Structure (SMILES): COCc1cccc2nc(NC(=O)c3sc4c(C(C)=O)ccc(COC)c4c3C)ccc12 [Example 67, 7-Acetyl-4-(methoxymethyl)-N-(5-(methoxymethyl)quinolin-2-yl)-3-methylbenzo[b]thiophene-2-carboxamide]
